In patent US9260488B2, “Replacement therapy for dental caries” (Oragenics, Inc., priority 2012, dated 2016):

How the values were obtained:
Assay in all cases: Minimum inhibitory concentration (CLSI M07-8A, modified)
Format in all cases: cell-based
[1] = tested on: Clostridium difficile UK1; conditions: peptide purified to about 90%; THyex medium; 24 hour incubation; anaerobic chamber at 37° C.
Procedure: (§1) Wild-type mutacin 1140, mutacin 1140 with a F1I mutation, mutacin 1140 with a W4A mutation, and mutacin 1140 with a R13D mutation was purified to about 90% purity (measured via HPLC). The minimum inhibitory concentration (MIC) of MU1140 and variants of MU1140 was determined against several bacteria. The MIC is the lowest concentration of MU1140 that will inhibit the visible growth of a microorganism after 24 hour incubation. A lower MIC is an indication of greater inhibitory activity. Preparation of the antimicrobial agent and bacterial inoculum for minimum inhibitory concentrations (MICs) was performed by following the method described in Clinical Laboratory Standard Institute (CLSI) M07-8A with some minor modifications. Streptococcus mutans UA159 was tested overnight in a shaking incubator to maintain uniform dispersion of the bacteria. Clostridium difficile UK1 was tested in an anaerobic chamber at 37° C. The medium used was THyex.

[2] = tested on: Micrococcus luteus ATCC10240; conditions: peptide purified to about 90%; THyex medium; 24 hour incubation
Procedure: as §1

[3] = tested on: Staphylococcus aureus FA1; conditions: peptide purified to about 90%; THyex medium; 24 hour incubation
Procedure: as §1

[4] = tested on: Streptococcus mutans UA159; conditions: peptide purified to about 90%; THyex medium; 24 hour incubation; shaking incubator overnight
Procedure: as §1

[5] = tested on: Streptococcus pneumonia FA1; conditions: peptide purified to about 90%; THyex medium; 24 hour incubation
Procedure: as §1

## Mu1140 Wild-type: wild-type lantibiotic mutacin MU1140 (SEQ ID NO:1) produced by S. mutans strain JH1140 (ATCC 55676)
[1]
  MIC Clostridium difficile UK1: 16
[2]
  MIC Micrococcus luteus ATCC10240: 0.0625
[3]
  MIC Staphylococcus aureus FA1: 16
[4]
  MIC Streptococcus mutans UA159: 2
[5]
  MIC Streptococcus pneumonia FA1: 0.5
